In the NIST ThermoML archive (doi:10.1016/j.jct.2013.08.011) one finds Normal boiling temperature, refractive index and mass density data, which are given here for three compounds.

For data set [1] the following is noted: Liquid; for Normal boiling temperature: Ebulliometric method (Recirculating still); for mass density: 293.15 K, 101.33 kPa, Vibrating tube method.
A short description of data set [2]: refractive index (Na D-line) (dimensionless). Particulars: 293.15 K; 101.33 kPa; Liquid; Standard Abbe refractometry.

Structures are written as SMILES. Numbers after ± are expanded uncertainties.

A word on the refractive index: it is the speed of light in vacuum divided by its phase velocity in the sample. As for `OCCO` [1,2-ethanediol], the Normal boiling temperature in data set [1] was 197.48 ± 0.2 °C. Further, the refractive index in data set [2] was found to be 1.4324 ± 0.0007.
A word on the mass density: it is the mass of a sample divided by its volume. Turning to `CC#N` [acetonitrile], in data set [1], the mass density is 783.4 ± 2 kg/m3 and the Normal boiling temperature stood at 81.50 ± 0.2 °C. In data set [2], the refractive index is reported as 1.3445 ± 0.0007.
For `CCCO` [propan-1-ol], in data set [1], the mass density is given as 804.1 ± 2 kg/m3 and the Normal boiling temperature is 97.30 ± 0.2 °C. In addition, the refractive index in data set [2] came out at 1.3865 ± 0.0007.
